Test results reported in ChEMBL document CHEMBL4196001, “Design, semisynthesis, α-glucosidase inhibitory, cytotoxic, and antibacterial activities of p-terphenyl derivatives” (Eur J Med Chem, 2018).
≈ marks a conversion by molar mass, not a printed value. Calls of active or inactive are those of the source. No cut-off for these calls is given here.

Columns and labels:
Alpha glucosidase [1] = biological target: T1, Alpha glucosidase (Homo sapiens, UniProt O43451+P10253+P14410+Q2M2H8); assay: Inhibition of human alpha-glucosidase expressed in Saccharomyces cerevisiae using p-nitrophenyl-alpha-D-glucopyranoside as substrate after 15 mins
MDA-MB-435 = assay: Cytotoxicity against human MDA-MB-435 cells; type: functional, cell-based
A549 [2] = assay: Cytotoxicity against human A549 cells at 10 uM by SRB assay; type: functional, cell-based
HeLa [3] = assay: Cytotoxicity against human HeLa cells at 10 uM by SRB assay; type: functional, cell-based
HepG2 [4] = assay: Cytotoxicity against human HepG2 cells at 10 uM by SRB assay; type: functional, cell-based
[5] = Cytotoxicity against human Chang cells at 10 uM by SRB assay; type: cell-based
Alpha glucosidase [6] = biological target: T1, Alpha glucosidase; assay: Non-competitive inhibition of human alpha-glucosidase expressed in Saccharomyces cerevisiae using p-nitrophenyl-alpha-D-glucopyranoside as substrate after 15 mins by Lineweaver-Burk plot analysis
[7] = Cytotoxicity against human Chang cells by SRB assay; type: cell-based
A549 [8] = assay: Cytotoxicity against human A549 cells by SRB assay; type: functional, cell-based
HeLa [9] = assay: Cytotoxicity against human HeLa cells by SRB assay; type: functional, cell-based
HepG2 [10] = assay: Cytotoxicity against human HepG2 cells by SRB assay; type: functional, cell-based
HeLa [11] = assay: Cell cycle arrest in human HeLa cells assessed as accumulation of cells at G0/G1 phase at 1.25 uM after 36 hrs by flow cytometric analysis (reference value: 66.64%); type: functional
HeLa [12] = assay: Cell cycle arrest in human HeLa cells assessed as accumulation of cells at G2/M phase at 1.25 uM after 36 hrs by flow cytometric analysis (reference value: 9.92%); type: functional
HeLa [13] = assay: Cell cycle arrest in human HeLa cells assessed as accumulation of cells at S phase at 1.25 uM after 36 hrs by flow cytometric analysis (reference value: 23.44%); type: functional
HeLa [14] = assay: Cell cycle arrest in human HeLa cells assessed as accumulation of cells at G0/G1 phase at 2.5 uM after 36 hrs by flow cytometric analysis (reference value: 66.64%); type: functional
HeLa [15] = assay: Cell cycle arrest in human HeLa cells assessed as accumulation of cells at G2/M phase at 2.5 uM after 36 hrs by flow cytometric analysis (reference value: 9.92%); type: functional
HeLa [16] = assay: Cell cycle arrest in human HeLa cells assessed as accumulation of cells at S phase at 2.5 uM after 36 hrs by flow cytometric analysis (reference value: 23.44%); type: functional
HeLa [17] = assay: Cell cycle arrest in human HeLa cells assessed as accumulation of cells at G0/G1 phase at 5 uM after 36 hrs by flow cytometric analysis (reference value: 66.64%); type: functional
HeLa [18] = assay: Cell cycle arrest in human HeLa cells assessed as accumulation of cells at G2/M phase at 5 uM after 36 hrs by flow cytometric analysis (reference value: 9.92%); type: functional
HeLa [19] = assay: Cell cycle arrest in human HeLa cells assessed as accumulation of cells at S phase at 5 uM after 36 hrs by flow cytometric analysis (reference value: 23.44%); type: functional
HeLa [20] = assay: Cell cycle arrest in human HeLa cells assessed as accumulation of cells at G0/G1 phase at 10 uM after 36 hrs by flow cytometric analysis (reference value: 66.64%); type: functional
HeLa [21] = assay: Cell cycle arrest in human HeLa cells assessed as accumulation of cells at G2/M phase at 10 uM after 36 hrs by flow cytometric analysis (reference value: 9.92%); type: functional
HeLa [22] = assay: Cell cycle arrest in human HeLa cells assessed as accumulation of cells at S phase at 10 uM after 36 hrs by flow cytometric analysis (reference value: 23.44%); type: functional
alpha-glucosidase = assay: Therapeutic index, ratio of CC50 for human Chang cells to IC50 for human alpha-glucosidase expressed in Saccharomyces cerevisiae; type: toxicity; settings: read-out: Ratio CC50/IC50
HeLa [23] = assay: Cytotoxicity against human HeLa cells after 3 days by hematoxylin-eosin staining-based assay; type: functional; settings: 72 h, read-out: ID50 (the source's name)
Staphylococcus aureus = assay: Antibacterial activity against Staphylococcus aureus after 24 hrs by broth macrodilution method; type: functional

Q: Which IC50 (Alpha glucosidase [1]) does the source give for `COc1cc(-c2ccc(O)cc2)c(OC)c(O)c1-c1ccc(O)c(O)c1` here?
A: 11.3 µM

Q: And the IC50 (MDA-MB-435)?
A: < 20 µM

Q: What about the Activity (A549 [2]) of the same compound?
A: inactive

Q: And the Activity (HeLa [3])?
A: inactive

Q: And the Activity (HepG2 [4])?
A: inactive

Q: And the Activity [5]?
A: Non-Toxic

Q: For `COc1cc(-c2ccc(O)c(O)c2)c(OC)c(O)c1-c1ccc(O)c(O)c1`, which IC50 (Alpha glucosidase [1]) is on record?
A: 14 µM

Q: What about the IC50 (MDA-MB-435) of the same compound?
A: < 20 µM

Q: And the Activity (A549 [2])?
A: inactive

Q: What about the Activity (HeLa [3]) of the same compound?
A: inactive

Q: What about the Activity (HepG2 [4]) of the same compound?
A: inactive

Q: And the Activity [5]?
A: Non-Toxic

Q: Which IC50 (Alpha glucosidase [1]) does the source give for `COc1cc(-c2ccc(O)cc2)c(OC)c(OCCC(C)C)c1-c1ccc(O)cc1` here?
A: 8.58 µM

Q: And the Ki (Alpha glucosidase [6])?
A: 3.45 µM

Q: And the Activity (A549 [2])?
A: inactive

Q: And the Activity (HeLa [3])?
A: inactive

Q: And the Activity (HepG2 [4])?
A: inactive

Q: And the Activity [5]?
A: Non-Toxic

Q: Which IC50 (Alpha glucosidase [1]) does the source give for `COc1cc(-c2ccc(O)cc2)c(OC)c(O)c1-c1ccc(OCC=C(C)C)cc1` here?
A: 17.5 µM

Q: And the CC50 [7]?
A: 0.31 µM

Q: And the IC50 (A549 [8])?
A: 0.31 µM

Q: What about the IC50 (HeLa [9]) of the same compound?
A: 3.18 µM

Q: And the IC50 (HepG2 [10])?
A: 0.46 µM

Q: And the Activity (HeLa [11])?
A: 49.83%

Q: And the Activity (HeLa [12])?
A: 10.74%

Q: And the Activity (HeLa [13])?
A: 39.42%

Q: What about the Activity (HeLa [14]) of the same compound?
A: 43.71%

Q: What about the Activity (HeLa [15]) of the same compound?
A: 10.54%

Q: What about the Activity (HeLa [16]) of the same compound?
A: 45.75%

Q: And the Activity (HeLa [17])?
A: 42.98%

Q: And the Activity (HeLa [18])?
A: 4.33%

Q: What about the Activity (HeLa [19]) of the same compound?
A: 52.69%

Q: What about the Activity (HeLa [20]) of the same compound?
A: 42.24%

Q: What about the Activity (HeLa [21]) of the same compound?
A: 0.55%

Q: And the Activity (HeLa [22])?
A: 57.2%

Q: What does the source list for `COc1cc(-c2ccc(O)cc2)c(O)c(O)c1-c1ccc(O)cc1`?
A: IC50 (Alpha glucosidase [1]): 13.2 µM; selectivity ratio (alpha-glucosidase): 17; CC50 [7]: 224 µM; Activity (A549 [2]): inactive; Activity (HeLa [3]): inactive; Activity (HepG2 [4]): inactive

Q: Which IC50 (Alpha glucosidase [1]) does the source give for `COc1cc(-c2ccccc2)c(OC)c(O)c1-c1ccc(O)cc1` here?
A: 108.2 µM

Q: And the IC50 (HeLa [23])?
A: 32 µg/mL (≈ 99.3 µM)

Q: What about the Activity (A549 [2]) of the same compound?
A: inactive

Q: And the Activity (HeLa [3])?
A: inactive

Q: What about the Activity (HepG2 [4]) of the same compound?
A: inactive

Q: What about the Activity [5] of the same compound?
A: Non-Toxic

Q: Which IC50 (Alpha glucosidase [1]) does the source give for `CCCOc1ccc(-c2cc(OC)c(-c3ccc(O)cc3)c(O)c2OC)cc1` here?
A: 10 µM

Q: What about the selectivity ratio (alpha-glucosidase) of the same compound?
A: 10

Q: What about the CC50 [7] of the same compound?
A: 98.5 µM

Q: And the Activity (A549 [2])?
A: inactive

Q: What about the Activity (HeLa [3]) of the same compound?
A: inactive

Q: What about the Activity (HepG2 [4]) of the same compound?
A: inactive

Q: Which IC50 (Alpha glucosidase [1]) does the source give for `COc1cc(-c2ccc(O)cc2)c(OC)c(O)c1-c1ccc(O)cc1` [TERPHENYLLIN] here?
A: 4.79 µM

Q: And the CC50 [7]?
A: 6.95 µM

Q: And the IC50 (HeLa [23])?
A: 10 µg/mL (≈ 29.6 µM)

Q: What about the Ki (Alpha glucosidase [6]) of the same compound?
A: 1.5 µM

Q: What about the IC50 (HeLa [9]) of the same compound?
A: 15.1 µM

Q: What about the Activity (A549 [2]) of the same compound?
A: inactive

Q: What about the Activity (HepG2 [4]) of the same compound?
A: inactive

Q: What does the source list for `C=CCOc1ccc(-c2c(OC)cc(-c3ccc(O)cc3)c(OC)c2O)cc1`?
A: IC50 (Alpha glucosidase [1]): 32.2 µM; CC50 [7]: 0.57 µM; IC50 (A549 [8]): 0.17 µM; IC50 (HeLa [9]): 1.02 µM; IC50 (HepG2 [10]): 0.95 µM; MIC (Staphylococcus aureus): 6.25 µM (≈ 2.37 µg/mL)
